Laboratory results as given in patent publication US10849847B2, “Compositions and methods for treating rosacea and acne” (Foamix Pharmaceuticals Ltd., priority 2016, dated 2020).
Where two headings read alike, the source gives them in different places. Values belong to the compound of their own block, whether it stands above or below them.

Legend:
[1] = Doxycycline Monohydrate Compatibility Test; type: physicochemical
Experimental: (§1) A similar compatibility study was conducted for Doxycycline Hyclate and Doxycycline Monohydrate.
(§2) Different compositions of hydrophilic and hydrophobic solvents containing Doxycycline Hyclate (Set I and Set II) and Doxycycline Monohydrate (Set III) were prepared by weighing the antibiotic in a glass vial and shaking overnight with each solvent investigated.
A similar compatibility test was performed on another form of Doxycycline—Doxycycline Monohydrate.

[2] = Doxycycline Monohydrate Compatibility Test; type: physicochemical; remark: listed apart in the source
[3] = Experimental: The ratio between MCH and the tested excipient is detailed below. Visual inspection was the major criterion for indication of compatibility. The color of intact MCH suspension is pale yellow; and any change of color (e.g., to dark orange, red, green, brown and black) indicates oxidation or degradation.
Other than hydrogenated castor oil, beeswax, paraffin and hard fat, the aforesaid items listed are oily emollients.
Additives were tested for compatibility with MCH. […] In parallel, antioxidants were added to the MCH suspensions comprising water.

[4] = Doxycycline Hyclate Compatibility Test; type: physicochemical
Experimental: as §1, §2
Group II included Doxycycline Hyclate mixed with various vehicles with addition of antioxidants like alpha tocopherol, butylated hydroxytoluene (BHT), and ascorbic acid.

[5] = in vitro; cited from earlier work
[6] = cited from earlier work
[7] = mixtures stored at 25° C., 40° C. and 50° C. for two weeks
[8] = tested after the storage for up to 3 weeks

Compatibility with Doxycycline Monohydrate [1, 7]: oxidized
Compatibility with Doxycycline Monohydrate [1, 8]: No
Compatibility Results ([2]; Mixtures of 1.04% w/w of Doxycycline Monohydrate stored at 25° C., 40° C., and 50° C. for two weeks): Non compatible
Visual inspection after the storage at 25° C. ([2]; Mixtures of 1.04% w/w of Doxycycline Monohydrate, 25° C., two weeks): Brown
Visual inspection after the storage at 40° C. ([2]; Mixtures of 1.04% w/w of Doxycycline Monohydrate, 40° C., two weeks): Brown
Visual inspection after the storage at 50° C. ([2]; Mixtures of 1.04% w/w of Doxycycline Monohydrate, 50° C., two weeks): Black
Visual inspection at T-0 ([2]; Mixtures of 1.04% w/w of Doxycycline Monohydrate, T-0): bright yellow
Compatibility with MCH ([3]; hydrophilic solvents, MCH:excipient 1:250, 25° C. and 40° C., maximum sixty days): incompatible
Compatibility with Minocycline HCl [3, 8]: No
Compatibility with Doxycycline Hyclate [4, 7]: stable
Compatibility with Doxycycline Hyclate [4, 8]: Yes
Compound: CCO [Ethanol]
Compatibility with Minocycline HCl (observations) ([3]; on dissolution / storage): changed their color from yellow to orange

Compound: CN(C)c1ccc(O)c2c1C[C@H]1C[C@H]3[C@H](N(C)C)C(O)=C(C(N)=O)C(=O)[C@@]3(O)C(O)=C1C2=O [minocycline]
Skin delivery of minocycline on topical administration [5]: appreciable amounts of the drug to its target site of action (the skin)

Compound: Doxycycline hyclate
Lipid solubility [6]: high degree of lipid solubility
Solubility ([6]; in solutions of alkali hydroxides and carbonates): soluble
Solubility ([6]; in water): soluble
